Consider three compounds from US20060052369A1, “Compositions and methods relating to novel compounds and targets thereof” (The Regents of the University of Michigan, priority 2004, published 2006).

Structures are written as SMILES. Where two headings read alike, the source gives them in different places.

By Ki is commonly meant a measure of affinity in units of concentration, obtained from inhibition or displacement. A word on the IC50: it is the point on the concentration scale where inhibition reaches its midpoint. For orientation: LD50 means the dose expected to kill half of the subjects tested.

Data set [1] addresses T1, ATPase of sub-mitochondrial particles (mitochondrial F1Fo-ATPase) (Bos taurus, UniProt P13621).
T1 construct: from tissue; host or cells: sub-mitochondrial particles (SMPs)
Kind of data set: NADH-coupled ATP hydrolysis kinetics assay with sub-mitochondrial particles. To be noted: for mechanism of inhibition: ATP hydrolysis. The class given is biochemical, bovine. As for the experimental part: The mechanism of inhibition for ATP hydrolysis induced by Bz-423 and derivatives of Bz-423 was assayed using an NADH-coupled assay. The ATP hydrolytic activity of the sub-mitochondrial particles (hereinafter SMPs) was measured by coupling the production of ADP to the oxidation of NADH via the pyruvate kinase and lactate dehydrogenase reaction. Briefly, ATP hydrolysis SMPs (0.8 mg; 7.14 μg/well) were added to hydrolysis buffer (100 mM Tris-HCl, pH 8.0 at 25° C., 4 mM MgCl2, […], 0.2 mM EDTA) and vortexed. 125 μL of this suspension was added to each well of a 96-well plate containing 50× drug or DMSO vehicle control (1% DMSO, final). The 96-well plate was then placed at 30° C. in a Molecular Devices Versamax tunable microplate reader and allowed to incubate for 5 min. During this 5 min, a substrate-coupling mixture was prepared (containing X mM ATP, 0.2 mM NADH, 1 mM phosphoenolpyruvate (PEP), 2 U/mL pyruvate kinase (PK), and 2 U/mL lactate dehydrogenase (LDH) in hydrolysis buffer). The rate of hydrolysis was assayed over a range of ATP concentrations (0.1-4.0 mM) at each [Bz]. 125 μL of the substrate-coupling mixture was added to each well, and the rate of NADH oxidation was monitored for 10 min at 340 nm, 30° C. The measured decrease in absorbance over time (in OD/min) was converted to μmol ATP hydrolyzed/min/mg SMP (ε=6220). The velocity data was plotted versus [ATP] for each concentration of [Bz] […] To obtain Ki values and confirm that an uncompetitive model of inhibition was the best fit for the data, three-dimensional fits of the velocity, [ATP], and [Bz] were performed to solve for Vmax, Km, Ki, and Ki* [where Ki indicates Bz binding to the ATPase with the third catalytic site empty (mixed-type inhibition only), and Ki* indicates binding when all three sites have substrate bound (uncompetitive and mixed-type inhibition)]. The following equations were used: Competitive Inhibition: Vo=Vmax[S]/((1+[I]/Ki)Km+[S]) Uncompetitive Inhibition: Vo=Vmax[S]/((1+[I]/Ki*)[S]+Km) Mixed or Noncompetitive Inhibition: Vo=Vmax[S]/((1+[I]/Ki)Km+(1+[I]Ki*)[S])
The results for the o-tert-Butyl derivative of Bz-423 are shown in Table 1 and confirm that this derivative binds the ATPase with an uncompetitive binding mechanism, similar to Bz-423.

For data set [2], the target named is F1Fo-ATPase (Homo sapiens, UniProt P05496). To be noted: cited from earlier work.
Data set [3] has as its system rodents. To be noted: two daily doses; cited from earlier work.
Where [4] appears, read: Ki*, Uncompetitive Inhibition model fit, binding when all three sites have substrate bound.
Setting [5] is: Ki, Competitive Inhibition model fit.

Consider `CN1C(=O)C(Cc2ccc3ccccc3c2)N=C(c2ccc(O)cc2)c2cc(Cl)ccc21` (centres unmarked) [Bz-423], for which the mechanism of inhibition result in data set [1] is given as “uncompetitive”. The Ki is 19 ± 5.8 µM in data set [1] (setting [4]) and 13.32 ± 0.1 µM in data set [1] (setting [5]).

Regarding `CN1C(=O)C(Cc2ccc(OC(C)(C)C)cc2)N=C(c2ccc(O)cc2)c2cc(Cl)ccc21` (centres unmarked) [o-tert-Butyl], the mechanism of inhibition result in data set [1] is given as “uncompetitive”. For the same compound, the Ki in data set [1] (setting [4]) amounted to 12.7 ± 1.1 µM; in data set [1] (setting [5]), 9.35 ± 2.4 µM; in data set [1] (Non-competitive Inhibition model fit, binding when all three sites have substrate bound, read-out: Ki*), 12.7 ± 1.1 µM. The “effect on Km” value in data set [1] (secondary plots of [Bz] versus Km) is reported as “decreased”. In addition, the “effect on Vmax” value in data set [1] (secondary plots of [Bz] versus Vmax) is reported as “decreased”.

As to `CC[C@H]1/C=C/C=C/C[C@@H](C)[C@H](O)[C@@](C)(O)C(=O)[C@@H](C)[C@H](O)[C@@H](C)C(=O)[C@@H](C)[C@H](O)[C@@H](C)/C=C/C(=O)O[C@@H]2[C@H](C)[C@H](CC1)O[C@]1(CC[C@H](C)[C@H](C[C@@H](C)O)O1)[C@H]2C` [oligomycin], the 50% inhibitory concentration (IC50) in data set [2] was 0.01 µM. In addition, the LD50 in data set [3] is 0.5 mg/kg.
